Data published in PubChem BioAssay AID200 (DTP/NCI, 2004).
“And” between values parts separate entries of the source, which are not always exact repeats. Equal values may be shown once. Inconclusive results and toxic doses are left out. How the source made its calls: active means survival T/C of 150% or more; inactive means T/C below 125% in these data. Where a SMILES comes first, the peptide text is derived from it.

System: B6C3F1 mice, B16 melanoma ip, median survival T/C
Assay: NCI In Vivo Anticancer Drug Screen. Data for tumor model B16 Melanoma (intraperitoneal) in B6C3F1 mice
Conditions: endpoint: median survival time, higher = longer survival
How it was run: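 Values are T/C ratios: the measurement in treated animals divided by that in vehicle-treated controls, using survival or tumor size in mice carrying transplantable tumors.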

[1] = dose: 6.25 mg/kg/injection, schedule: Q01DX009 (ip), vehicle: Klucel (hydroxypropylcellulose) (HPC)
[2] = dose: 12.5 mg/kg/injection, schedule: Q01DX009 (ip), vehicle: Klucel (hydroxypropylcellulose) (HPC)
[3] = dose: 0.78 mg/kg/injection, schedule: Q01DX009 (ip), vehicle: saline with Tween-80
[4] = dose: 1.56 mg/kg/injection, schedule: Q01DX009 (ip), vehicle: saline with Tween-80
[5] = dose: 3.12 mg/kg/injection, schedule: Q01DX009 (ip), vehicle: saline with Tween-80
[6] = dose: 12.5 mg/kg/injection, schedule: Q01DX009 (ip), vehicle: saline with Tween-80
[7] = dose: 25.0 mg/kg/injection, schedule: Q01DX009 (ip), vehicle: saline with Tween-80
[8] = dose: 50.0 mg/kg/injection, schedule: Q01DX009 (ip), vehicle: saline with Tween-80
[9] = dose: 100.0 mg/kg/injection, schedule: Q01DX009 (ip), vehicle: saline with Tween-80
[10] = dose: 6.25 mg/kg/injection, schedule: Q01DX009 (ip), vehicle: water
[11] = dose: 12.5 mg/kg/injection, schedule: Q01DX009 (ip), vehicle: water
[12] = dose: 50.0 mg/kg/injection, schedule: Q01DX009 (ip), vehicle: water
[13] = dose: 200.0 mg/kg/injection, schedule: Q01DX009 (ip), vehicle: saline with Tween-80
[14] = dose: 400.0 mg/kg/injection, schedule: Q01DX009 (ip), vehicle: saline with Tween-80
[15] = dose: 100.0 mg/kg/injection, schedule: Q01DX009 (ip), vehicle: saline
[16] = dose: 200.0 mg/kg/injection, schedule: Q01DX009 (ip), vehicle: saline
[17] = dose: 25.0 mg/kg/injection, schedule: Q01DX009 (ip), vehicle: saline
[18] = dose: 50.0 mg/kg/injection, schedule: Q01DX009 (ip), vehicle: saline
[19] = dose: 100.0 mg/kg/injection, schedule: Q01DX009 (ip), vehicle: Klucel (hydroxypropylcellulose) (HPC)
[20] = dose: 200.0 mg/kg/injection, schedule: Q01DX009 (ip), vehicle: Klucel (hydroxypropylcellulose) (HPC)
[21] = dose: 6.25 mg/kg/injection, schedule: Q01DX009 (ip), vehicle: saline with Tween-80
[22] = dose: 3.0 mg/kg/injection, schedule: Q01DX009 (ip), vehicle: saline with Tween-80
[23] = dose: 6.0 mg/kg/injection, schedule: Q01DX009 (ip), vehicle: saline with Tween-80
[24] = dose: 100.0 mg/kg/injection, schedule: Q01DX009 (ip), vehicle: water

Measured: T/C

[F][Sn]([F])([c]1ccccc1)[c]1ccccc1
inactive: dose: 1.56 mg/kg/injection, schedule: Q01DX009 (ip), vehicle: Klucel (hydroxypropylcellulose) (HPC) 98 % of control | dose: 3.12 mg/kg/injection, schedule: Q01DX009 (ip), vehicle: Klucel (hydroxypropylcellulose) (HPC) 87 % of control | [1] 104 % of control | [2] 103 % of control

COC(=Nc1ccccc1)SSC(C)C
inactive: [3] 112 % of control | [4] 116 % of control | [5] 87 % of control | [6] 86 % of control and 104 % of control | [7] 87 % of control and 97 % of control | [8] 88 % of control | [9] 102 % of control

O=c1[nH]c(=O)n([C@H]2CCCO2)cc1F
inactive: dose: 12.5 mg/kg/injection, schedule: Q01DX009 (ip), vehicle: suspension in saline 98 % of control | dose: 25.0 mg/kg/injection, schedule: Q01DX009 (ip), vehicle: suspension in saline 100 % of control | dose: 50.0 mg/kg/injection, schedule: Q01DX009 (ip), vehicle: suspension in saline 112 % of control | dose: 100.0 mg/kg/injection, schedule: Q01DX009 (ip), vehicle: suspension in saline 107 % of control | dose: 200.0 mg/kg/injection, schedule: Q01DX009 (ip), vehicle: suspension in saline 120 % of control

NC(CNC(=O)CBr)C(=O)O (configuration not stated)
inactive: [10] 112 % of control and 117 % of control and 104 % of control | [11] 116 % of control and 118 % of control
active: [12] 153 % of control

Nc1ccc(S(N)(=O)=O)cc1
inactive: [6] 94 % of control | [7] 86 % of control and 99 % of control | [8] 98 % of control and 100 % of control | [9] 105 % of control and 108 % of control | [13] 114 % of control and 101 % of control | [14] 90 % of control and 99 % of control

O=C(O)CNC(=O)CNC(=O)C(Cc1cnc[nH]1)NC(=O)OCc1ccccc1 (configuration not stated) (HELM PEPTIDE1{[O=C(OCc1ccccc1)[*:2]].[O=C(C(Cc1c[nH]cn1)N[*:1])[*:2]].G.G}$$$$V2.0)
inactive: [9] 89 % of control | [13] 91 % of control | [14] 97 % of control

OCC1OC(n2cnc3c(SCc4ccccc4)ncnc32)C(O)C1O (configuration not stated)
active: dose: 37.5 mg/kg/injection, schedule: Q01DX009 (ip), vehicle: saline with Tween-80 171 % of control | dose: 75.0 mg/kg/injection, schedule: Q01DX009 (ip), vehicle: saline with Tween-80 167 % of control | dose: 150.0 mg/kg/injection, schedule: Q01DX009 (ip), vehicle: saline with Tween-80 182 % of control

CC(CNC(=O)CCOS(C)(=O)=O)NC(=O)CCOS(C)(=O)=O (configuration not stated)
active: [15] 187 % of control | [16] 177 % of control and 240 % of control

CNC=O
inactive: [15] 101 % of control | [16] 108 % of control | dose: 400.0 mg/kg/injection, schedule: Q01DX009 (ip), vehicle: saline 95 % of control

c1csc(C[N+]23CN4CN(CN(C4)C2)C3)c1
inactive: dose: 12.0 mg/kg/injection, schedule: Q01DX009 (ip), vehicle: saline 100 % of control | [17] 98 % of control | [18] 98 % of control | [15] 104 % of control | [16] 106 % of control

CC(C)(C)Oc1ccc(CC(NC(=O)OCC2c3ccccc3-c3ccccc32)C(=O)O)cc1 (configuration not stated)
inactive: dose: 50.0 mg/kg/injection, schedule: Q01DX009 (ip), vehicle: Klucel (hydroxypropylcellulose) (HPC) 107 % of control | [19] 108 % of control | [20] 105 % of control

Cc1cc(Cc2cc(C)c(C)c(C)c2C)c(C)c(C)c1C
inactive: [3] 89 % of control | [4] 91 % of control | dose: 3.13 mg/kg/injection, schedule: Q01DX009 (ip), vehicle: saline with Tween-80 100 % of control | [21] 106 % of control

O=NN(CCF)C(=O)N[C@H]1CCCC[C@H]1O
inactive: dose: 7.5 mg/kg/injection, schedule: Q01DX001 (ip), vehicle: saline 109 % of control
active: dose: 30.0 mg/kg/injection, schedule: Q01DX001 (ip), vehicle: saline 177 % of control | dose: 60.0 mg/kg/injection, schedule: Q01DX001 (ip), vehicle: saline 209 % of control

N#CC(=C1SCS1)[N+](=O)[O-]
inactive: dose: 0.37 mg/kg/injection, schedule: Q01DX009 (ip), vehicle: saline with Tween-80 108 % of control | dose: 0.75 mg/kg/injection, schedule: Q01DX009 (ip), vehicle: saline with Tween-80 100 % of control | dose: 1.5 mg/kg/injection, schedule: Q01DX009 (ip), vehicle: saline with Tween-80 105 % of control | [22] 119 % of control | [23] 118 % of control | dose: 12.0 mg/kg/injection, schedule: Q01DX009 (ip), vehicle: saline with Tween-80 107 % of control | dose: 375.0 micrograms/kg/injection, schedule: Q01DX009 (ip), vehicle: saline with Tween-80 107 % of control | dose: 750.0 micrograms/kg/injection, schedule: Q01DX009 (ip), vehicle: saline with Tween-80 104 % of control | dose: 1500.0 micrograms/kg/injection, schedule: Q01DX009 (ip), vehicle: saline with Tween-80 113 % of control | dose: 3000.0 micrograms/kg/injection, schedule: Q01DX009 (ip), vehicle: saline with Tween-80 108 % of control | dose: 6000.0 micrograms/kg/injection, schedule: Q01DX009 (ip), vehicle: saline with Tween-80 101 % of control

CC(=O)NO
inactive: [12] 89 % of control | [24] 102 % of control | dose: 200.0 mg/kg/injection, schedule: Q01DX009 (ip), vehicle: water 100 % of control | dose: 400.0 mg/kg/injection, schedule: Q01DX009 (ip), vehicle: water 112 % of control

O=C1N=C(Oc2ccccc2)SC1=O
inactive: [6] 110 % of control | [7] 98 % of control | [8] 103 % of control | [9] 92 % of control

COc1ccc(S(=O)(=O)N=N/C=C2\C=CC=CN2O)cc1OC
inactive: [22] 119 % of control | [5] 111 % of control | [23] 123 % of control | [21] 102 % of control | [6] 107 % of control | [7] 123 % of control | [8] 122 % of control

c1cc[c]([Sn]([c]2ccccc2)([c]2ccccc2)[n]2cccc2)cc1
inactive: dose: 0.79 mg/kg/injection, schedule: Q01DX009 (ip), vehicle: saline with Tween-80 113 % of control | [4] 98 % of control | [5] 93 % of control | [21] 113 % of control

O=C(Nc1ccc(N=C=S)cc1Cl)c1cc(Cl)cc(Cl)c1O
inactive: [1] 107 % of control | [2] 98 % of control | dose: 25.0 mg/kg/injection, schedule: Q01DX009 (ip), vehicle: Klucel (hydroxypropylcellulose) (HPC) 116 % of control

O=NNc1cccnc1
inactive: [10] 107 % of control | [11] 121 % of control | dose: 25.0 mg/kg/injection, schedule: Q01DX009 (ip), vehicle: water 111 % of control | [12] 100 % of control | [24] 107 % of control

Cc1ccc(NN=O)nc1
inactive: dose: 0.75 mg/kg/injection, schedule: Q01DX009 (ip), vehicle: water 114 % of control | dose: 1.5 mg/kg/injection, schedule: Q01DX009 (ip), vehicle: water 120 % of control | dose: 1.56 mg/kg/injection, schedule: Q01DX009 (ip), vehicle: water 112 % of control | dose: 3.0 mg/kg/injection, schedule: Q01DX009 (ip), vehicle: water 120 % of control | dose: 6.0 mg/kg/injection, schedule: Q01DX009 (ip), vehicle: water 124 % of control

O=C1CCC(=O)N1CO
inactive: [18] 121 % of control | [15] 117 % of control

COc1cc(NCCCCCCCNC(C)C)c2nccc(C)c2c1
inactive: dose: 3.12 mg/kg/injection, schedule: Q01DX009 (ip), vehicle: saline 103 % of control | dose: 6.25 mg/kg/injection, schedule: Q01DX009 (ip), vehicle: saline 96 % of control | dose: 12.5 mg/kg/injection, schedule: Q01DX009 (ip), vehicle: saline 103 % of control | [17] 103 % of control

CC(C)C(NC(=O)OCC1c2ccccc2-c2ccccc21)C(=O)O (configuration not stated)
inactive: [19] 91 % of control | [20] 91 % of control
